# In patent US11726079B2, “Lighting systems and methods of using lighting systems for in vitro potency assay for Photofrin” (Concordia Laboratories, Inc., priority 2012, dated 2023):
# Where “and” joins values, the source holds several entries; their conditions need not be identical. Identical values can stand only once. Marks after values point to notes of the source that are not given here.
# System: A549 human lung carcinoma cells
# Assay: In vitro potency assay for Photofrin®: A549 cells, 4 h drug absorption, wash, 10 min irradiation at 400-650 nm, 24 h, XTT viability, 4PL EC50
# Type: cell-based
# Design: key to EC50-XTT / EC50 STD / EC50 Test: EC50 as Photofrin concentration in μg/mL (4PL inflection point)
# Conditions: for EC50 Test / Black plate EC50 / EC50 STD: in µg/mL; for Black plate EC50: black plate with black lid; for Clear Plate EC50: clear 96-well plate; for Potency of Test Sample / Potency of Test Sample, Mean / Experimental Potency: ratio EC50(standard)/EC50(test); for Potency of Test Sample / Potency of Test Sample, Mean: expected 0.5; for EC50 STD: standard sample (70 μg/mL high test drug concentration)
# Method: Cell passaging of A549 cells is performed using fixed seeding densities to reduce assay variation resulting from cell culture conditions. […] Working in very low light conditions, Photofrin® is reconstituted in normal saline to 2.5 mg/mL and diluted further in culture medium at twice the desired final assay concentration, typically 140 μg/mL. A series of two-fold dilutions were then prepared from the 140 μg/mL solution and the diluted drug was added to the cells at 1:1 (v/v) according to the diagram shown in FIG. 11.
# […] The plate is then removed from the incubator, the drug is aspirated, the wells are washed with Dulbecco's phosphate buffered saline (DPBS) and fresh, pre-warmed medium is added to the wells. […] […] The wells covered with foil strips are important controls for the activity of Photofrin® in the absence of irradiation and the effect of light on the cells in the absence of drug.
# The optical absorbance of the wells in column 1 (high drug concentration, no cells) is evaluated for absorption at 450 nm to ensure that the drug is not interfering with the XTT assay. The percent viability of each of the wells in columns 2-9 and 11 is calculated relative to the mean value of column 10 (cell control, no drug, no light). For each dose response obtained, a four parameter logistic (4PL) nonlinear regression analysis is performed of the percent viability versus the log-Photofrin® concentration. The point of inflection of the regression curve (C value) is defined as the EC50 and used in the calculation of relative potency. Curve fitting and calculation of the EC50 is performed with Softmax v5.4.2 (Molecular Devices, Inc.) or Prism v.5.04 (GraphPad, Software Inc.) software. The mean percent viability of columns 9 and 11 is also calculated.
# • 1. Materials and Reagents • 1.1. A549 Human Lung Carcinoma (ATCC—Cat. No.: CCL-185) • 1.2. 25 cm^2 Flasks (Corning—Cat. No.: 431463, or equivalent) • 1.3. 75 cm^2 Flasks (Corning—Cat. No.: 431464, or equivalent) • 1.4. 50 mL tubes (Fisher Scientific—Cat. No. 17-512F, or equivalent) • 1.5. Hemacytometer • 1.6. RPMI-1640 (+) phenol red (Lonza—Cat. No.: 12-167F, or equivalent) • 1.7. HI-FBS (Gibco—Life Technologies—Cat No.: 10082-147, or equivalent) • 1.8. 200 mM L-Glutamine (Lonza—Cat. No.: 17-605E, or equivalent) • 1.9. 0.25% Trypsin-EDTA (Gibco—Cat. No.: 25200-056, or equivalent) • 2. Instruments • 2.1. Forma Scientific centrifuge with swinging bucket rotor (Model 5682, or equivalent) • 2.2. Water bath set at 37° C. • 2.3. […] Prepared Reagents • 3.1. RPMI-1640 Complete Media • 3.1.1. 500 mL bottle of RPMI-1640 basal media containing phenol red • 3.1.2. Add 50 mL HI-FBS • 3.1.3. Add 5.5 mL of 200 mM L-Glutamine • 4. Procedure • 4.1. Remove one vial of A549 lung carcinoma cells from liquid nitrogen storage and after ensuring that the vial is tightly closed, rapidly thaw vial by holding all but the top of the vial submerged in a 37° C. water bath until the vial contents begins to thaw but while ice still remains. • 4.2. Liberally spray the vial with 70% ethanol, wipe with tissue, and place into a laminar flow hood. • 4.3. Transfer the contents of the vial to a 50 mL conical tube containing 9 mL RPMI-1640 complete medium containing phenol red (Step 3.1) (hereafter referred to as complete medium in this method). • 4.4. Centrifuge the tube in a swing bucket rotor set at 1200 RPM (220 RCF) for five minutes at room temperature. • 4.5. Discard supernatant and gently flick the tube to resuspend the cells in the residual volume left in the tube. • 4.6. Add 5 mL complete medium, transfer the cell solution to a 25 cm^2 flask, and then place the flask into a 37° C. incubator with 5% CO2. • 4.7. Monitor the flask daily and when the cells reach approximately 80% confluence, remove the media, and wash the cells by adding 2 mL DPBS to the flask. Ensure that all cells are rinsed and discard the DPBS. • 4.8. Add 1 mL 0.25% trypsin-EDTA to prewash the cells, tip flask to coat all cells, and discard the trypsin. • 4.9. […]
# [1] = seeding density 0.8 × 10^4 cells/well
# [2] = seeding density 1.2 × 10^4 cells/well
# [3] = seeding density 1.9 × 10^4 cells/well
substance,measurement,setting,value
porfimer sodium [Photofrin®],EC50 Test,Test sample of theoretical potency 0.5,21.3 and 21.7
same,EC50 Test,Test sample of theoretical potency 2,5.16
same,EC50 Test,"Test sample of theoretical potency 4 (dissolved in one-fourth the nominal volume), confidence interval wide due to poor curve fitting",2.36*
same,Test Sample EC50,"Test sample, 35 μg/mL high test concentration regressed as if 70 μg/mL, Plate 1 (placement Standard, Test; left to right dilution; controls in columns 9-11)",21.2 µg/mL
same,Test Sample EC50,"Test sample, 35 μg/mL high test concentration regressed as if 70 μg/mL, Plate 2 (placement Test, Standard; left to right dilution; controls in columns 9-11)",22.2 µg/mL
same,Test Sample EC50,"Test sample, 35 μg/mL high test concentration regressed as if 70 μg/mL, Plate 3 (right to left dilution; controls in columns 9-11)",21.5 µg/mL
same,Test Sample EC50,"Test sample, 35 μg/mL high test concentration regressed as if 70 μg/mL, Plate 4 (placement Standard, Test; left to right dilution; controls in columns 9-11)",21.5 µg/mL
same,Test Sample EC50,"Test sample, 35 μg/mL high test concentration regressed as if 70 μg/mL, Plate 5 (left to right dilution; controls in columns 2-4)",20.1 µg/mL
same,"Test Sample EC50, Mean","Test sample, 35 μg/mL high test concentration regressed as if 70 μg/mL, mean across Plates 1-5 of positional analysis",21.3 µg/mL
same,Black plate EC50,"experiment PIN-004, nine point dose response 250-0.977 μg/m",8.08
same,Black plate EC50,"experiment PIN-008, six point dose response 30.0-1.09 μg/mL",10.1 and 9.48 and 9.59
same,"Black plate EC50, Mean","black plate, mean of PIN-004 and PIN-008 values",9.31 µg/mL
same,Clear Plate EC50,"experiment PIN-004, nine point dose response 250-0.977 μg/m, in µg/mL (unit assumed)",1.87
same,Clear Plate EC50,"experiment PIN-008, six point dose response 30.0-1.09 μg/mL, in µg/mL (unit assumed)",2.49 and 2.46 and 2.33
same,"Clear Plate EC50, Mean","clear plate, mean of PIN-004 and PIN-008 values",2.29 µg/mL
same,EC50-XTT,"experiment PIN-009, XTT endpoint, in µg/mL (unit assumed)",9.48 and 9.42
same,"EC50-XTT, Mean","experiment PIN-009, XTT endpoint, mean",9.45 µg/mL
same,Potency of Test Sample,A549 cells at passage P10,0.556
same,Potency of Test Sample,A549 cells at passage P17,0.526
same,Potency of Test Sample,"Inter-operator Assay, AB-1",0.465
same,Potency of Test Sample,"Inter-operator Assay, AB-2",0.564
same,"Potency of Test Sample, Mean","Inter-operator Assay, mean of operator AB plates",0.515
same,"Potency of Test Sample, Mean","Inter-operator Assay, mean of operator KP plates",0.487
same,Potency of Test Sample,"Inter-operator Assay, operator KP, both plates KP-1",0.470 and 0.503
same,Potency of Test Sample,absorption time 3.5 hours,0.533
same,Potency of Test Sample,absorption time 4.0 hours,0.507
same,Potency of Test Sample,absorption time 4.5 hours,0.573
same,Potency of Test Sample,irradiation time 8 minutes,0.490
same,Potency of Test Sample,irradiation time 9 minutes,0.476
same,Potency of Test Sample,irradiation time 10 minutes,0.487
same,Potency of Test Sample,irradiation time 11 minutes,0.555
same,Potency of Test Sample,irradiation time 12 minutes,0.514
same,Potency of Test Sample,operator AB Pilot Assay-1,0.411
same,Potency of Test Sample,operator AB Pilot Assay-2,0.537
same,Potency of Test Sample,post-irradiation incubation time 22 hours,0.549
same,Potency of Test Sample,post-irradiation incubation time 24 hours,0.54
same,Potency of Test Sample,post-irradiation incubation time 26 hours,0.575
same,Potency of Test Sample,post-irradiation temperature 35° C.,0.448
same,Potency of Test Sample,"post-irradiation temperature 37° C. (nominal, two experiments)",0.543 and 0.495
same,Potency of Test Sample,post-irradiation temperature 39° C.,0.516
same,Potency of Test Sample,[1],0.521
same,Potency of Test Sample,[2],0.391
same,Potency of Test Sample,[3],0.526
same,Experimental Potency,theoretical potency 0.5,0.526 and 0.516
same,Experimental Potency,theoretical potency 2,2.05
same,Experimental Potency,"theoretical potency 4, wide confidence interval on EC50",4.36*
same,Mean Potency,"ratio of the EC50(standard)/EC50(test), positional analysis, Plates 1-5, Test sample is Standard diluted two-fold",0.516
same,EC50 STD,assayed with Test sample of theoretical potency 0.25,11.6
same,EC50 STD,assayed with Test sample of theoretical potency 2,10.6
same,EC50 STD,assayed with Test sample of theoretical potency 4,10.3
same,EC50 STD,[1],11.0
same,EC50 STD,[2],10.9
same,EC50 STD,[3],11.2
same,killing of the cells,treatment of cells followed by irradiation at 400-650 nm,dose-dependent killing of the cells
